Assay results published in PubChem BioAssay (NCI).
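Compound exposure: 48 hours, 5 concentrations, 96-well plates. TGI: concentration producing complete growth inhibition.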

How the values were obtained:
Test in all cases: NCI-60 cell line screen, 48 h
A498 renal = test system: A498 renal
SF-268 CNS = test system: SF-268 CNS
HCT-116 colon = test system: HCT-116 colon
HL-60(TB) leukemia = test system: HL-60(TB) leukemia
SK-OV-3 ovarian = test system: SK-OV-3 ovarian
UACC-257 melanoma = test system: UACC-257 melanoma
IGROV1 ovarian = test system: IGROV1 ovarian
MDA-MB-231 breast = test system: MDA-MB-231 breast
HCC-2998 colon = test system: HCC-2998 colon
SW-620 colon = test system: SW-620 colon
DU-145 prostate = test system: DU-145 prostate
HOP-92 NSCLC = test system: HOP-92 NSCLC
ACHN renal = test system: ACHN renal
KM12 colon = test system: KM12 colon
HCT-15 colon = test system: HCT-15 colon
NCI/ADR-RES ovarian = test system: NCI/ADR-RES ovarian
OVCAR-5 ovarian = test system: OVCAR-5 ovarian
HOP-62 NSCLC = test system: HOP-62 NSCLC
SNB-75 CNS = test system: SNB-75 CNS
CCRF-CEM leukemia = test system: CCRF-CEM leukemia
A549 NSCLC = test system: A549 NSCLC
M14 melanoma = test system: M14 melanoma
U251 CNS = test system: U251 CNS
OVCAR-8 ovarian = test system: OVCAR-8 ovarian
COLO 205 colon = test system: COLO 205 colon
SF-539 CNS = test system: SF-539 CNS
UO-31 renal = test system: UO-31 renal
NCI-H522 lung = test system: NCI-H522 lung
HT29 colon = test system: HT29 colon
MDA-N = test system: MDA-N
SNB-19 CNS = test system: SNB-19 CNS
OVCAR-3 ovarian = test system: OVCAR-3 ovarian
NCI-H460 lung = test system: NCI-H460 lung
MOLT-4 leukemia = test system: MOLT-4 leukemia
EKVX NSCLC = test system: EKVX NSCLC
UACC-62 melanoma = test system: UACC-62 melanoma
MDA-MB-435 = test system: MDA-MB-435
SN12C renal = test system: SN12C renal
LOX IMVI melanoma = test system: LOX IMVI melanoma
NCI-H226 lung = test system: NCI-H226 lung
K-562 leukemia = test system: K-562 leukemia
SF-295 CNS = test system: SF-295 CNS
NCI-H23 lung = test system: NCI-H23 lung
MCF7 breast = test system: MCF7 breast
T-47D breast = test system: T-47D breast
786-0 renal = test system: 786-0 renal
PC-3 prostate = test system: PC-3 prostate
BT-549 breast = test system: BT-549 breast
HS 578T breast = test system: HS 578T breast
CAKI-1 renal = test system: CAKI-1 renal
SR leukemia = test system: SR leukemia
TK-10 renal = test system: TK-10 renal
RXF 393 renal = test system: RXF 393 renal
SK-MEL-5 melanoma = test system: SK-MEL-5 melanoma
SK-MEL-28 melanoma = test system: SK-MEL-28 melanoma
SK-MEL-2 melanoma = test system: SK-MEL-2 melanoma
MALME-3M melanoma = test system: MALME-3M melanoma
RPMI-8226 leukemia = test system: RPMI-8226 leukemia
OVCAR-4 ovarian = test system: OVCAR-4 ovarian

In the case of `O=C1C(Cl)=C(N2C(=O)CCC2=O)C(=O)c2ccccc21`, the TGI (A498 renal) was > 100 µM, the TGI (SF-268 CNS) was > 100 µM and the TGI (HCT-116 colon) was 49.7 µM. The TGI (HL-60(TB) leukemia) was 6.73 µM, the TGI (SK-OV-3 ovarian) was > 100 µM and the TGI (UACC-257 melanoma) was 57.5 µM. The TGI (IGROV1 ovarian) was > 100 µM, the TGI (MDA-MB-231 breast) was > 100 µM and the TGI (HCC-2998 colon) was 60.3 µM. The TGI (SW-620 colon) was 56.9 µM, the TGI (DU-145 prostate) was 95 µM and the TGI (HOP-92 NSCLC) was 26.6 µM. The TGI (ACHN renal) was 29.1 µM, the TGI (KM12 colon) was > 100 µM and the TGI (HCT-15 colon) was 27.2 µM. For the same compound, the TGI (NCI/ADR-RES ovarian) was > 100 µM, the TGI (OVCAR-5 ovarian) was 49.7 µM and the TGI (HOP-62 NSCLC) was > 100 µM. The TGI (SNB-75 CNS) was > 100 µM, the TGI (CCRF-CEM leukemia) was 21.8 µM and the TGI (A549 NSCLC) was > 100 µM. For the same compound, the TGI (M14 melanoma) was > 100 µM, the TGI (U251 CNS) was 63.3 µM and the TGI (OVCAR-8 ovarian) was > 100 µM. For the same compound, the TGI (COLO 205 colon) was 32.8 µM, the TGI (SF-539 CNS) was > 100 µM and the TGI (UO-31 renal) was 34.4 µM. The TGI (NCI-H522 lung) was 59.6 µM, the TGI (HT29 colon) was > 100 µM and the TGI (MDA-N) was 35 µM. For the same compound, the TGI (SNB-19 CNS) was > 100 µM, the TGI (OVCAR-3 ovarian) was 34.3 µM and the TGI (NCI-H460 lung) was > 100 µM. For the same compound, the TGI (MOLT-4 leukemia) was > 100 µM, the TGI (EKVX NSCLC) was > 100 µM and the TGI (UACC-62 melanoma) was > 100 µM. For the same compound, the TGI (MDA-MB-435) was 44 µM, the TGI (SN12C renal) was 33.6 µM and the TGI (LOX IMVI melanoma) was 86.4 µM. For the same compound, the TGI (NCI-H226 lung) was > 100 µM, the TGI (K-562 leukemia) was 17.1 µM and the TGI (SF-295 CNS) was > 100 µM. For the same compound, the TGI (NCI-H23 lung) was 79.8 µM, the TGI (MCF7 breast) was 33.7 µM and the TGI (T-47D breast) was > 100 µM. The TGI (786-0 renal) was 37.9 µM, the TGI (PC-3 prostate) was > 100 µM and the TGI (BT-549 breast) was 37.3 µM. The TGI (HS 578T breast) was > 100 µM, the TGI (CAKI-1 renal) was 38.1 µM and the TGI (SR leukemia) was 82.5 µM. For the same compound, the TGI (TK-10 renal) was > 100 µM, the TGI (RXF 393 renal) was 45.7 µM and the TGI (SK-MEL-5 melanoma) was 36.7 µM. For the same compound, the TGI (SK-MEL-28 melanoma) was 48 µM and the TGI (SK-MEL-2 melanoma) was > 100 µM.

For `CN(C)CCCNC(=O)c1cc2/c(=C\c3ccc(N(C)C)cc3)c3ccccc3n2[n+]1C`, the TGI (A498 renal) was > 100 µM, the TGI (SF-268 CNS) was 90.9 µM and the TGI (HCT-116 colon) was 64.2 µM. For the same compound, the TGI (HL-60(TB) leukemia) was 46 µM, the TGI (SK-OV-3 ovarian) was > 100 µM and the TGI (UACC-257 melanoma) was 51.3 µM. The TGI (IGROV1 ovarian) was 37.1 µM, the TGI (MDA-MB-231 breast) was 64.4 µM and the TGI (SW-620 colon) was > 100 µM. The TGI (MALME-3M melanoma) was 38.4 µM, the TGI (RPMI-8226 leukemia) was 53.6 µM and the TGI (DU-145 prostate) was > 100 µM. For the same compound, the TGI (HOP-92 NSCLC) was 56.4 µM, the TGI (ACHN renal) was > 100 µM and the TGI (KM12 colon) was 61.6 µM. For the same compound, the TGI (HCT-15 colon) was > 100 µM, the TGI (NCI/ADR-RES ovarian) was > 100 µM and the TGI (OVCAR-5 ovarian) was > 100 µM. The TGI (HOP-62 NSCLC) was > 100 µM, the TGI (CCRF-CEM leukemia) was 90.1 µM and the TGI (A549 NSCLC) was > 100 µM. The TGI (M14 melanoma) was 39 µM, the TGI (U251 CNS) was 69.2 µM and the TGI (OVCAR-8 ovarian) was > 100 µM. The TGI (COLO 205 colon) was 21.3 µM, the TGI (SF-539 CNS) was 39.4 µM and the TGI (UO-31 renal) was > 100 µM. The TGI (NCI-H522 lung) was 10.9 µM, the TGI (HT29 colon) was 82.8 µM and the TGI (MDA-N) was 78.4 µM. For the same compound, the TGI (SNB-19 CNS) was > 100 µM, the TGI (OVCAR-3 ovarian) was 52.2 µM and the TGI (NCI-H460 lung) was > 100 µM. For the same compound, the TGI (MOLT-4 leukemia) was > 100 µM, the TGI (EKVX NSCLC) was 39.7 µM and the TGI (UACC-62 melanoma) was 34 µM. The TGI (MDA-MB-435) was 58.7 µM, the TGI (SN12C renal) was 13.5 µM and the TGI (LOX IMVI melanoma) was > 100 µM. The TGI (K-562 leukemia) was 35.4 µM, the TGI (SF-295 CNS) was > 100 µM and the TGI (NCI-H23 lung) was 59.5 µM. The TGI (MCF7 breast) was 50.7 µM, the TGI (T-47D breast) was 15.9 µM and the TGI (786-0 renal) was > 100 µM. The TGI (OVCAR-4 ovarian) was 21.4 µM, the TGI (PC-3 prostate) was > 100 µM and the TGI (BT-549 breast) was > 100 µM. The TGI (HS 578T breast) was > 100 µM, the TGI (CAKI-1 renal) was > 100 µM and the TGI (SR leukemia) was 54.1 µM. For the same compound, the TGI (TK-10 renal) was > 100 µM, the TGI (RXF 393 renal) was > 100 µM and the TGI (SK-MEL-5 melanoma) was 31.3 µM. The TGI (SK-MEL-28 melanoma) was 74.8 µM and the TGI (SK-MEL-2 melanoma) was 35.6 µM.
